# US20230091225A1, “Bifunctional chimeric heterocyclic compounds for targeted degradation of androgen receptors and use thereof” (HINOVA PHARMACEUTICALS INC., priority 2019, published 2023)
# Biological target: T1, androgen receptor (AR) (Homo sapiens, UniProt P10275)
# T1 sequence (P10275 1-920): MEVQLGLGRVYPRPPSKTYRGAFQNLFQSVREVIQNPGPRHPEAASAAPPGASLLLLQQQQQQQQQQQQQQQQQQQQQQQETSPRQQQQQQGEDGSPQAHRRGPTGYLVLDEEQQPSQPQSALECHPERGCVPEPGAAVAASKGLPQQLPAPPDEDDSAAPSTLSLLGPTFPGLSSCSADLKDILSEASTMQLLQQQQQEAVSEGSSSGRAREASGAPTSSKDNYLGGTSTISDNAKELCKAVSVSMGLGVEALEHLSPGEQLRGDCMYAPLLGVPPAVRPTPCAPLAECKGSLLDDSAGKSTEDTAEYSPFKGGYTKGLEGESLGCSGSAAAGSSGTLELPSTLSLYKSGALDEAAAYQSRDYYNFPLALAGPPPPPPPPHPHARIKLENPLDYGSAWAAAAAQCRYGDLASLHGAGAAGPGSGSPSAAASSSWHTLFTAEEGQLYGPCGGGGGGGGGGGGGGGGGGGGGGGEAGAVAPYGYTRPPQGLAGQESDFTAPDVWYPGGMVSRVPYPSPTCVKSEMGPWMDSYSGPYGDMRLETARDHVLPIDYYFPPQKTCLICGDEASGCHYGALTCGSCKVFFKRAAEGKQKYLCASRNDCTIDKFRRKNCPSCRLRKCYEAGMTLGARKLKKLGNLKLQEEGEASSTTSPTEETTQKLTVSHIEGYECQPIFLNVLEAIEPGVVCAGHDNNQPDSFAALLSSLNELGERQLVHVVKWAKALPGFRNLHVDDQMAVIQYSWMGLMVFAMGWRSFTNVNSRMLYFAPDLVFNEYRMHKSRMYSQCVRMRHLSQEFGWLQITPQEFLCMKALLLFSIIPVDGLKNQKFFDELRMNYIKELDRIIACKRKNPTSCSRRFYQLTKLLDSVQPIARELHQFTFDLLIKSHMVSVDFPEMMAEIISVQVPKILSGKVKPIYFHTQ
# Experiment: Degradation of androgen receptor (AR) protein in VCaP cells by Western blot
# Assay type: cell-based
# Conditions: percentage of degraded AR at 100 nM, VCaP cells, 16 h
# How it was run: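 VCaP cells (5×10^5/well) were seeded overnight, then treated in duplicate for 16 h with compound in 0.1% DMSO final. Lysates (30 μg protein) were immunoblotted for AR (D6F11) with β-actin as loading control, detected by ECL chemiluminescence.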
row,Compound,inhibition at 0.1 µM [%]
1,"N#Cc1ccc(O[C@H]2C[C@H]3C[C@@H](NC(=O)c4cnc(N5CCC(CN6CCN(c7ccc8c(c7)C(=O)N(C7CCC(=O)NC7=O)C8=O)CC6)CC5)cn4)C[C@H]3C2)cc1Cl (stereo partly drawn) [Compound 303, N-((2s,3aR,5R,6aS)-5-(3-chloro-4-cyanophenoxy)octahydropenten-2-yl)-5-(4-((4-(2-(2,6-dioxopiperidin-3-yl)-1,3-dioxoisoindolin-5-yl)piperazin-1-yl)methyl)piperidin-1-yl)piperazine-2-carboxamide]",< 25
2,"N#Cc1ccc(O[C@H]2CC[C@H](NC(=O)c3nnc(N4CC5(CCN(CC6CCN(c7ccc8c(c7)C(=O)N(C7CCC(=O)NC7=O)C8=O)CC6)CC5)C4)s3)CC2)cc1Cl (stereo partly shown) [Compound 105, N-((1r,4r)-4-(3-chloro-4-cyanophenoxy)cyclohexyl)-5-(7-((1-(2-(2,6-dioxopiperidin-3-yl)-1,3-dioxoisoindolin-5-yl)piperidine-4-yl)methyl)-2,7-diazaspiro[3.5]nonan-2-yl)-1,3,4-thiadiazole-2-carboxamide]",50 to 79
3,"N#Cc1ccc(O[C@H]2CC[C@H](NC(=O)c3cnc(N4CCC(N5CCC6(CCN(c7cc8c(cc7F)C(=O)N(C7CCC(=O)NC7=O)C8=O)C6)C5)CC4)cn3)CC2)cc1Cl (stereo partly shown) [Compound 165, N-((1r,4r)-4-(3-chloro-4-cyanophenoxy)cyclohexyl)-5-(4-(7-(2-(2,6-dioxopiperidin-3-yl)-6-fluoro-1,3-dioxoisoindolin-5-yl)-2,7-diazaspiro[4.4]nonan-2-yl)piperidin-1-yl)pyrazine-2-carboxamide]",> 80
4,N#Cc1ccc(O[C@H]2CC[C@H](NC(=O)c3cnc(N4CCC(CN5CCC6(CCN(c7cc8c(cc7F)C(=O)N(C7CCC(=O)NC7=O)C8=O)C6)C5)CC4)cn3)CC2)cc1Cl (stereo partly shown) [Compound 141],> 80
5,"N#Cc1ccc(O[C@H]2CC[C@H](NC(=O)c3ccc(N4CCC5(CCN(CC6CCN(c7cc8c(cc7F)C(=O)N(C7CCC(=O)NC7=O)C8=O)CC6)C5)C4)nn3)CC2)cc1Cl (stereo partly shown) [Compound 162, N-((1r,4r)-4-(3-chloro-4-cyanophenoxy)cyclohexyl)-6-(7-((1-(2-(2,6-dioxopiperidin-3-yl)-6-fluoro-1,3-dioxoisoindolin-5-yl)piperidine-4-yl)methyl)-2,7-diazaspiro[4.4]nonan-2-yl)pyridazine-3-formamide]",> 80
6,N#Cc1ccc(O[C@H]2CC[C@H](N3Cc4nc(NC5CCN(CC6CCN(c7ccc8c(c7)C(=O)N(C7CCC(=O)NC7=O)C8=O)CC6)CC5)ccc4C3=O)CC2)cc1Cl (stereo partly shown) [Compound 172],< 25
7,"N#Cc1ccc(O[C@H]2CC[C@H](NC(=O)c3cnc(N4C[C@@H]5[C@@H](CN6CCN(c7cc8c(cc7F)C(=O)N(C7CCC(=O)NC7=O)C8=O)CC6)[C@@H]5C4)cn3)CC2)cc1Cl (stereo partly drawn) [Compound 176, N-((1r,4R)-4-(3-chloro-4-cyanophenoxy)cyclohexyl)-5-((1R,5S,6S)-6-((4-(2-(2,6-dioxopiperidin-3-yl)-6-fluoro-1,3-dioxoisoindolin-5-yl)piperazin-1-yl)methyl)-3-azabicyclo[3.1.0]hexan-3-yl)pyrazine-2-carboxamide]",50 to 79
8,"N#Cc1ccc(O[C@H]2CC[C@H](NC(=O)c3ccc(N4CCC(CN5CCC6(C5)CN(c5ccc7c(c5)C(=O)N(C5CCC(=O)NC5=O)C7=O)C6)CC4)nn3)CC2)cc1Cl (stereo partly shown) [Compound 185, N-((1r,4r)-4-(3-chloro-4-cyanophenoxy)cyclohexyl)-6-(4-((2-(2-(2,6-dioxopiperidin-3-yl)-1,3-dioxoisoindolin-5-yl)-2,6-diazaspiro[3.4]octan-6-yl)methyl)piperidin-1-yl)pyridazine-3-formamide]",> 80
9,"CC1(C)[C@H](Oc2ccc(C#N)c(Cl)c2)C(C)(C)[C@H]1N1Cc2nc(C#CC3CCN(C4CCN(c5ccc6c(c5)C(=O)N(C5CCC(=O)NC5=O)C6=O)CC4)CC3)ccc2C1=O (stereo partly shown) [Compound 315, 2-chloro-4-((1r,3r)-3-(2-((1′-(2-(2,6-dioxopiperidin-3-yl)-1,3-dioxoisoindolin-5-yl)-[1,4′-dipiperidine]4-yl)ethynyl)-5-oxo-5,7-dihydro-6H-pyrrolo[3,4-b]pyridin-6-yl)-2,2,4,4-tetramethylcyclobutoxy)benzonitrile]",< 25
10,"N#Cc1ccc(O[C@H]2CC[C@H](NC(=O)c3ccc(N4C[C@@H]5[C@@H](CN6CCN(c7ccc8c(c7)C(=O)N(C7CCC(=O)NC7=O)C8=O)CC6)[C@@H]5C4)nn3)CC2)cc1Cl (stereo partly drawn) [Compound 179, N-((1r,4R)-4-(3-chloro-4-cyanophenoxy)cyclohexyl)-6-((1R,5S,6S)-6-((4-(2-(2,6-dioxopiperidin-3-yl)-1,3-dioxoisoindolin-5-yl)piperazin-1-yl)methyl)-3-azabicyclo[3.1.0]hexan-3-yl)pyridazine-3-formamide]",25 to 49
11,"N#Cc1ccc(O[C@H]2CC[C@H](NC(=O)c3ccc(N4CCC(N5CCC6(CCN(c7cc8c(cc7F)C(=O)N(C7CCC(=O)NC7=O)C8=O)C6)C5)CC4)nn3)CC2)cc1Cl (stereo partly shown) [Compound 164, N-((1r,4r)-4-(3-chloro-4-cyanophenoxy)cyclohexyl)-6-(4-(7-(2-(2,6-dioxopiperidin-3-yl)-6-fluoro-1,3-dioxoisoindol-5-yl)-2,7-diazaspiro[4.4]nonan-2-yl)piperidin-1-yl)pyridazine-3-formamide]",> 80

# Results, then the molecule that gave them:
row,inhibition at 0.1 µM [%],Compound
1,25 to 49,"N#Cc1ccc(O[C@H]2CC[C@H](NC(=O)c3ccc(N4CCC(CN5CCCN(c6ccc7c(c6)C(=O)N(C6CCC(=O)NC6=O)C7=O)CC5)CC4)cc3)CC2)cc1Cl (stereo partly drawn) [Compound 58, N-((1R,4R)-4-(3-chloro-4-cyanophenoxy)cyclohexyl)-4-(4-((4-(2-(2,6-dioxopiperidin-3-yl)-1,3-dioxoisoindolin-5-yl)-1,4-diazepan-1-yl)methyl)piperidin-1-yl)benzamide]"
2,> 80,"N#Cc1ccc(O[C@H]2CC[C@H](NC(=O)c3ccc(N4CCC(CN5CC6(CCN(c7cc8c(cc7F)C(=O)N(C7CCC(=O)NC7=O)C8=O)C6)C5)CC4)nn3)CC2)cc1Cl (stereo partly shown) [Compound 180, N-((1r,4r)-4-(3-chloro-4-cyanophenoxy)cyclohexyl)-6-(4-((6-(2-(2,6-dioxopiperidin-3-yl)-6-fluoro-1,3-dioxoisoindolin-5-yl)-2,6-diazaspiro[3.4]octan-2-yl)methyl)piperidin-1-yl)pyridazine-3-formamide]"
3,< 25,"N#Cc1ccc(O[C@H]2CC[C@H](NC(=O)c3ccc(N4CCN([C@@H]5C[C@@H]6CN(c7ccc8c(c7)C(=O)N(C7CCC(=O)NC7=O)C8=O)C[C@@H]6C5)CC4)nn3)CC2)cc1Cl (stereo partly drawn) [Compound 298, N-((1r,4r)-4-(3-chloro-4-cyanophenoxy)cyclohexyl)-6-(4-((3aR,5R,6aS)-2-(2-(2,6-dioxopiperidin-3-yl)-1,3-dioxoisoindolin-5-yl)octahydrocyclopenta[c]pyrrol-5-yl)piperazin-1-yl)pyridazine-3-formamide]"
4,50 to 79,CC1(C)[C@H](Oc2ccc(C#N)c(Cl)c2)C(C)(C)[C@H]1N1Cc2nc(C#C[C@H]3CC[C@H](N4CCN(c5cc6c(cc5F)C(=O)N(C5CCC(=O)NC5=O)C6=O)CC4)CC3)ccc2C1=O (stereo partly shown) [Compound 326]
5,> 80,N#Cc1ccc(O[C@H]2CC[C@H](NC(=O)c3cnc(N4CC5CN(CC6CCN(c7cc8c(cc7F)C(=O)N(C7CCC(=O)NC7=O)C8=O)CC6)CC5C4)cn3)CC2)cc1Cl (stereo partly shown) [Compound 157]
